From ChEMBL document CHEMBL4706603, “Discovery of VEGFR-2 inhibitors exerting significant anticancer activity against CD44+ and CD133+ cancer stem cells (CSCs): Reversal of TGF-β induced epithelial-mesenchymal transition (EMT) in hepatocellular carcinoma” (Eur J Med Chem, 2020)
pIC50: −log10 of the molar value. Active and inactive are the calls of the source. The calls are words filed in the database; no cut-off is given here.

Columns and labels:
[1] = tested on: HepG2; assay: Induction of apoptosis in human HepG2 cells assessed as necrotic cells by measuring intense red fluorescence at IC50 incubated for 24 hrs by Alexa Fluor488-annexin V/PI staining based fluorescence analysis; assay type: functional, cell-based
[2] = Inhibition of VEGFR2 expression in human HUVEC assessed as mean fluorescence intensity at IC50 incubated for 48 hrs by FITC based flow cytometry analysis (reference value: 49.24 +/- 0.47); assay type: functional
[3] = tested on: HepG2; assay: Induction of apoptosis in human HepG2 cells assessed as early apoptotic cells by measuring green fluorescence at IC50 incubated for 24 hrs by Alexa Fluor488-annexin V/PI staining based fluorescence analysis; assay type: functional, cell-based
[4] = tested on: HepG2; assay: Antiproliferative activity against human HepG2 cells harboring CD133+ assessed as reduction in cell viability incubated for 24 hrs by MTT assay; assay type: functional, cell-based
[5] = tested on: HepG2; assay: Induction of mitochondrial membrane potential disruption in human HepG2 cells assessed as green fluorescence at IC50 incubated for 24 hrs by JC-10 staining based fluorescence assay; assay type: functional, cell-based
[6] = tested on: HepG2; assay: Induction of apoptosis in human HepG2 cells assessed as early apoptotic cells by measuring yellowish green coloured nucleus at IC50 incubated for 24 hrs by EtBr/AO staining based fluorescence microscopic analysis; assay type: functional, cell-based
[7] = Toxicity in female Wistar rat assessed as apathy occurence at 2000 mg/kg, po observed for 48 hrs; assay type: organism-based; conditions: in vivo
[8] = Toxicity in Wistar rat assessed as effect on relative weight of liver at 5 to 2000 mg/kg, po and measured on day 15; assay type: organism-based; conditions: in vivo, 360 h, dose 5-2000 mg/kg, time 15 day
[9] = tested on: HUVEC; assay: Antiproliferative activity against human HUVEC assessed as reduction in cell viability incubated for 24 hrs by MTT assay; assay type: functional, cell-based
[10] = Toxicity in Wistar rat assessed as toxic signs at 5 to 300 mg/kg, po and observed for 14 days; assay type: organism-based; conditions: in vivo, 336 h, dose 5-300 mg/kg, time 14 day
[11] = Toxicity in po dosed Wistar rat; assay type: organism-based; conditions: in vivo
[12] = Toxicity in Wistar rat assessed as effect on relative weight of heart at 5 to 2000 mg/kg, po and measured on day 15; assay type: organism-based; conditions: in vivo, 360 h, dose 5-2000 mg/kg, time 15 day
[13] = Toxicity in Wistar rat assessed as effect on SGPT level at 5 to 2000 mg/kg, po and measured on day 15; assay type: organism-based; conditions: in vivo, 360 h, dose 5-2000 mg/kg, time 15 day
[14] = Retention time in Wistar rat plasma by HPLC-MS analysis; assay type: ADME, cell-free
[15] = Toxicity in female Wistar rat assessed as hard abdomen at 2000 mg/kg, po observed for 48 hrs; assay type: organism-based; conditions: in vivo
[16] = tested on: HepG2; assay: Cytotoxicity against human HepG2 cells assessed as reduction in cell viability by trypan blue assay; assay type: functional, cell-based
[17] = Inhibition of VEGFR2 expression in human HUVEC assessed as mean fluorescence intensity at IC50 incubated for 48 hrs by fluorescence microscopic analysis (reference value: 1.448 +/- 0.01); assay type: functional
[18] = tested on: HepG2; assay: Antimigratory activity against human HepG2 cells assessed as reduction in cell migration at IC50 by transwell migration assay; assay type: functional, cell-based; conditions: TDE = time-dependent effect
[19] = tested on: HepG2; assay: Induction of apoptosis in human HepG2 cells assessed as shrinkage of nucleus by measuring orange coloured fluorescence at IC50 incubated for 24 hrs by EtBr/AO staining based fluorescence microscopic analysis; assay type: functional, cell-based
[20] = Toxicity in Wistar rat assessed as effect on relative weight of lungs at 5 to 2000 mg/kg, po and measured on day 15; assay type: organism-based; conditions: in vivo, 360 h, dose 5-2000 mg/kg, time 15 day
[21] = tested on: HepG2; assay: Induction of cell cycle arrest in human HepG2 cells harboring CD133+ assessed as increase in S phase arrest at IC50 concentration incubated for 48 hrs by PI staining based flow cytometry analysis; assay type: functional
[22] = Toxicity in Wistar rat assessed as effect on hematological parameters at 5 to 2000 mg/kg, po and measured on day 15; assay type: organism-based; conditions: in vivo, 360 h, dose 5-2000 mg/kg, time 15 day
[23] = Toxicity in Wistar rat assessed as effect on ALP level in serum at 5 to 2000 mg/kg, po and measured on day 15; assay type: organism-based; conditions: in vivo, 360 h, dose 5-2000 mg/kg, time 15 day
[24] = tested on: HepG2; assay: Cytotoxicity against human HepG2 cells assessed as reduction in cell viability incubated for 24 hrs by MTT assay; assay type: functional, cell-based
[25] = tested on: HepG2; assay: Inhibition of epithelial-mesenchymal transition in TGF-beta-induced human HepG2 cells assessed as E-cadherin expression at IC50 incubated for 48 hrs by flow cytometry analysis (reference value: 2.92 %); assay type: functional; set-up: scale not given: the % may be the effect or the level left
[26] = tested on: MDA-MB-231; assay: Induction of apoptosis in human MDA-MB-231 cells assessed as necrotic cells at IC50 incubated for 72 hrs by Alexa Fluor488-annexin V/PI staining based flow cytometric analysis (Rvb= 0.0 %); assay type: functional
[27] = Toxicity in Wistar rat assessed as body weight loss at 2000 mg/kg, po and observed for 1 week; assay type: organism-based; conditions: in vivo, 168 h, time 1 weeks
[28] = tested on: Chorioallantoic membrane; assay: Antiangiogenic activity in chicken fertilized egg chorioallantoic membrane measured upto 72 hrs by CAM assay; assay type: functional, tissue-based; conditions: Gallus gallus, dose 0.01-2 µM, time hrs <=72
[29] = AUMC (0 to infinity) in Wistar rat at 5 mg/kg, po by HPLC-MS analysis; assay type: ADME, organism-based; conditions: in vivo
[30] = tested on: MCF7; assay: Antimigratory activity against human MCF7 cells assessed as wound healing at IC50 incubated for 24 hrs by inverted microscopic analysis (reference value: 27.64 %); assay type: functional
[31] = tested on: HepG2; assay: Induction of cell cycle arrest in human HepG2 cells harboring CD44+ assessed as increase in G0/G1 phase arrest at IC50 concentration incubated for 48 hrs by PI staining based flow cytometry analysis; assay type: functional
[32] = Inhibition of VEGF expression in human HUVEC assessed as mean fluorescence intensity at IC50 incubated for 48 hrs by FITC based flow cytometry analysis (reference value: 53.91+/- 0.95); assay type: functional
[33] = Toxicity in female Wistar rat assessed as difficult to breathe at 2000 mg/kg, po observed for 48 hrs; assay type: organism-based; conditions: in vivo
[34] = Toxicity in Wistar rat assessed as normal liver parenchyma with normal hepatocytes arranged in hepatic strands and normal vascular tissue and bile duct without inflammatory or pathological changes at 2000 mg/kg, po and measured on day 15 by microscopic analysis; assay type: organism-based; conditions: in vivo, 360 h, time 15 day
[35] = tested on: HepG2; assay: Induction of apoptosis in human HepG2 cells assessed as late apoptotic cells by measuring green fluorescence membrane with fragmented red nucleus at IC50 incubated for 24 hrs by Alexa Fluor488-annexin V/PI staining based fluorescence analysis; assay type: functional, cell-based
[36] = tested on: HepG2; assay: Induction of apoptosis in human HepG2 cells assessed as late apoptotic cells by measuring orange coloured nucleus at IC50 incubated for 24 hrs by EtBr/AO staining based fluorescence microscopic analysis; assay type: functional, cell-based
[37] = Toxicity in Wistar rat assessed as effect on SGOT level at 5 to 2000 mg/kg, po and measured on day 15; assay type: organism-based; conditions: in vivo, 360 h, dose 5-2000 mg/kg, time 15 day
[38] = tested on: HepG2; assay: Antiproliferative activity against human HepG2 cells harboring CD44+ assessed as reduction in cell viability incubated for 24 hrs by MTT assay; assay type: functional, cell-based

With CC(=O)Nc1ccc(Oc2cccc3c(NC(=O)Nc4cccc(C(F)(F)F)c4)cccc23)cc1 the Activity [1] was “Active”, the Flu intensity [2] was 18.41 and the Activity [3] was “Active”. The inhibition [4] was “Dose-dependent effect”, the pIC50 ([4]; HepG2, 24 h) was 5.66 and the Activity [5] was “Active”. The Activity [6] was “Active”, the Activity [7] was “Toxic” and the Activity [8] was “Non-Toxic”. The pIC50 [9] was 5.02, the inhibition [9] was “Dose-dependent effect” and the Activity [10] was “Non-Toxic”. The LD50 [11] was over 2000 mg/kg, the Activity [12] was “Non-Toxic” and the Activity [13] was “Non-Toxic”. The Retention_time [14] was 10.17 min, the Activity [15] was “Toxic” and the pIC50 [16] was 5.93. The inhibition [16] was “Dose-dependent effect”, the Flu intensity [17] was 1 and the Activity [18] was “Tde”. For the same compound, the Activity [19] was “Active”, the Activity [20] was “Non-Toxic” and the Activity [21] was “Active”. The Activity [22] was “Non-Toxic”, the Activity [23] was “Non-Toxic” and the inhibition [24] was “Dose-dependent effect”. For the same compound, the pIC50 ([24]; HepG2, 24 h) was 6.59, the Activity [25] was 46.7% and the Activity [26] was 0.3%. For the same compound, the Activity [27] was “Toxic”, the Activity [28] was “Dose-dependent effect” and the AUMC [29] was 8929.284 ug/ml.hr^2. The Activity [30] was 3.02%, the Activity [31] was “Active” and the Flu intensity [32] was 21.41. For the same compound, the Activity [33] was “Toxic”, the Activity [34] was “Non-Toxic” and the Activity [35] was “Active”. The Activity [36] was “Active”, the Activity [37] was “Non-Toxic” and the inhibition [38] was “Dose-dependent effect”. It also gave a pIC50 ([38]; HepG2, 24 h) of 5.48.
